Results as given in patent US11339171B2, “MDM2 inhibitors” (Gan & Lee Pharmaceuticals, priority 2017, dated 2022).
“And” between values parts separate entries of the source, which are not always exact repeats. Identical values can stand only once. Like-named read-outs stand apart in the source and are kept apart here.

Assays:
MDM2 = target: T1, MDM2 (Homo sapiens, UniProt Q00987); assay: Inhibition test of MDM2-P53 (GST-MDM2, Biotin-P53, Anti-GST-Tb, SA-XL665); type: binding
T1 construct: made in house
In short: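 HTRF-type assay using 4 nM GST-MDM2 (final), Biotin-P53, SA-XL665 and anti-GST-Tb in PBS with 0.1% BSA, 5 mM DTT and 1 mM AEBSF. Compounds in 5-fold serial dilutions over twelve points; incubation 90 min at 25° C with shaking before plate-reader read-out.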

[1] = test system: human osteosarcoma cell line SJSA-1; assay: Inhibition of proliferation of human osteosarcoma cell line SJSA-1 (DAPI staining, In Cell Analyzer); settings: Homo sapiens, SJSA-1, 72 h, read-out: IC50 (nM), inhibitory activity on proliferation of human osteosarcoma cell line SJSA-1, SJSA-1, incubated 72 h
[2] = Pharmacokinetics in ICR mice after intravenous and intragastric administration; type: in vivo; settings: for MRT last: read-out: MRT(0-t); for MRT inf: read-out: MRT(0-∞); for Tmax: read-out: Tmax; for Vd: read-out: Vz; for half-life: read-out: t1/2 (converted)
Experimental: Experimental Example 3 Determination of the Pharmacokinetics of the Mdm2 Inhibitors of the Present Invention in Mice
ICR mice were used as the test animals, and the concentrations of the drugs in plasma of mice at different time points after intravenous administration and intragastric administration of the representative compounds were measured by a LC/MS/MS method, so as to study the pharmacokinetic behavior of the compounds of the present invention in mice and evaluate the pharmacokinetic characteristics thereof.
Some compounds prepared in Examples 1-180 of the present invention.
The control drug HDM201 was prepared by the method disclosed in patent No. CN104203952A.
Healthy adult ICR mice, male, 6-9 weeks old, weighing 20-30 g, purchased from Shanghai Xipuer-Bikai Laboratory Animal Co., Ltd., Animal Production License No.: SCXK (HU) 2013-0016
3.2.3 Preparation of Test Drugs
Intragastric or intravenous administration: an appropriate amount of sample was weighed, dissolved in 5% DMSO+40% PEG400+55% (10% HP-β-CD in Saline) to prepare a 0.5 mg/ml solution for intragastric or intravenous administration.
3.2.4 Administration of Test Drugs
Intravenous administration: for each test compound, 3 male ICR mice were administered intravenously at a dose of 2 mg/kg and an administration volume of […] after fasting overnight.
Intragastric administration: for each test compound, 3 male ICR mice were administered intragastrically at a dose of 5 mg/kg and an administration volume of […] after fasting overnight.
3.3 Experimental Operation
The collected plasma was stored at −80° C. before analysis. The plasma sample was analyzed by LC-MS/MS, and the sample was pretreated by protein precipitation method. The linear range of sample analysis was 1 to 2000 ng/ml. The lowest quantification limit was 1 ng/mL. WinNonlin (Pharsight, USA) was used to calculate the following pharmacokinetic parameters: area under the curve AUC(0-t), area under the curve AUC(0-∞), half-life t1/2, retention time MRT(0-∞), blood drug concentration Cmax, time taken to reach the peak blood drug concentration Tmax, bioavailability F, apparent volume of distribution Vz, and clearance rate CL.

[3] = ICR mice, IV 2 mg/kg, individual animals 301-303, 2 mg/kg
[4] = ICR mice, PO 5 mg/kg, individual animals 401-403, 5 mg/kg
[5] = male, ICR, mouse, plasma, iv, 2 mg/kg, ICR mice, IV 2 mg/kg, individual animals 301-303
[6] = male, ICR, mouse, plasma, iv, 2 mg/kg, ICR mice, IV 2 mg/kg, mean of 3 animals
[7] = male, ICR, mouse, plasma, po, 5 mg/kg, ICR mice, PO 5 mg/kg, individual animals 401-403
[8] = male, ICR, mouse, plasma, po, 5 mg/kg, ICR mice, PO 5 mg/kg, mean of 3 animals

T1 sequence (Q00987 whole entry): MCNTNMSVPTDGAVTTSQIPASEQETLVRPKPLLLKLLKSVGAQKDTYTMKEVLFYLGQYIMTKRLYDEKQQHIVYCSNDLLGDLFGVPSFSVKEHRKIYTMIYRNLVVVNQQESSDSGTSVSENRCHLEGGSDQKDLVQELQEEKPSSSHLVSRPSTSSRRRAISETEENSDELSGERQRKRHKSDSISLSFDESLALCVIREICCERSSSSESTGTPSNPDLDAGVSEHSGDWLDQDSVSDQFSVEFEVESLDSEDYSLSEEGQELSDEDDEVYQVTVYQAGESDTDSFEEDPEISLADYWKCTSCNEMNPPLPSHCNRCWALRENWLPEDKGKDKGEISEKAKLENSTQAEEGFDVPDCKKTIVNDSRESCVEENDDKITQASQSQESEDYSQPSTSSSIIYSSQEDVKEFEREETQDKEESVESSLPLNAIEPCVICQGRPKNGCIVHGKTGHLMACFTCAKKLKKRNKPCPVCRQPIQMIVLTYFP

COc1nc(N(C)C)ncc1-c1nc2c(n1C(C)C)[C@@]1(C(=O)Nc3cc(Cl)ccc31)N(c1cc(Cl)cnc1C)C2=O [Example S-135, (S)-6-chloro-5′-(5-chloro-2-methylpyridin-3-yl)-2′-(2-(dimethylamino)-4-methoxypyrimidin-5-yl)-3′-isopropyl-3′H-spiro[dihydroindole-3,4′-pyrrolo[3,4-d]imidazole]-2,6′(5′H)-dione]
IC50 (MDM2): 0.00136 µM | IC50 [1]: 96.2 nM | AUC(0-t) [2, 3]: 7341.09 ng·h/mL and 6495.01 ng·h/mL | AUC(0-∞) [2, 3]: 7977.92 ng·h/mL and 7378.29 ng·h/mL | CL [2, 3]: 4.18 mL/min/kg and 4.52 mL/min/kg | Cmax [2, 3]: 3518.53 ng/mL and 3314.60 ng/mL | MRT(0-t) [2, 3]: 1.66 h and 1.70 h | MRT(0-∞) [2, 3]: 2.21 h and 2.57 h | Vz [2, 3]: 0.64 L/kg and 0.80 L/kg | t1/2 [2, 3]: 1.78 h and 2.03 h | F* ([2]; ICR mice, PO 5 mg/kg vs IV 2 mg/kg, mean): 48.91% | AUC(0-t) [2, 4]: 7012.03 ng·h/mL and 9412.84 ng·h/mL | AUC(0-∞) [2, 4]: 7126.47 ng·h/mL and 9616.11 ng·h/mL | Cmax [2, 4]: 2014.04 ng/mL and 2249.28 ng/mL | MRT(0-t) [2, 4]: 2.19 h and 2.43 h | MRT(0-∞) [2, 4]: 2.32 h and 2.59 h | t1/2 [2, 4]: 1.27 h and 1.34 h | AUC(0-inf) [2, 5]: 7840 ng·h/mL | clearance [2, 5]: 4.25 mL/min/kg | AUC(0-t) ([2]; male, ICR, mouse, plasma, iv, 2 mg/kg, ICR mice, IV 2 mg/kg, individual animals 301-303, read-out: AUC(0-t)): 7270 ng·h/mL | Cmax ([2]; male, ICR, mouse, plasma, iv, 2 mg/kg, ICR mice, IV 2 mg/kg, individual animals 301-303, read-out: Cmax): 3900 ng/mL | MRT last [2, 5]: 1.6 h | MRT inf [2, 5]: 2.09 h | Tmax [2, 5]: 0.08 h | Vd [2, 5]: 0.61 L/kg | half-life [2, 5]: 1.65 h | AUC(0-inf) [2, 6]: 7730 ng·h/mL | clearance [2, 6]: 4.32 mL/min/kg | AUC(0-t) ([2]; male, ICR, mouse, plasma, iv, 2 mg/kg, ICR mice, IV 2 mg/kg, mean of 3 animals, read-out: AUC(0-t)): 7040 ng·h/mL | Cmax ([2]; male, ICR, mouse, plasma, iv, 2 mg/kg, ICR mice, IV 2 mg/kg, mean of 3 animals, read-out: Cmax): 3580 ng/mL | MRT last [2, 6]: 1.65 h | MRT inf [2, 6]: 2.29 h | Tmax [2, 6]: 0.083 h | Vd [2, 6]: 0.68 L/kg | half-life [2, 6]: 1.82 h | AUC(0-inf) [2, 7]: 9970 ng·h/mL | AUC(0-t) ([2]; male, ICR, mouse, plasma, po, 5 mg/kg, ICR mice, PO 5 mg/kg, individual animals 401-403, read-out: AUC(0-t)): 9390 ng·h/mL | Cmax ([2]; male, ICR, mouse, plasma, po, 5 mg/kg, ICR mice, PO 5 mg/kg, individual animals 401-403, read-out: Cmax): 2160 ng/mL | MRT last [2, 7]: 2.64 h | MRT inf [2, 7]: 3.12 h | Tmax [2, 7]: 1 h | half-life [2, 7]: 1.87 h | AUC(0-inf) [2, 8]: 8910 ng·h/mL | AUC(0-t) ([2]; male, ICR, mouse, plasma, po, 5 mg/kg, ICR mice, PO 5 mg/kg, mean of 3 animals, read-out: AUC(0-t)): 8600 ng·h/mL | Cmax ([2]; male, ICR, mouse, plasma, po, 5 mg/kg, ICR mice, PO 5 mg/kg, mean of 3 animals, read-out: Cmax): 2140 ng/mL | MRT last [2, 8]: 2.42 h | MRT inf [2, 8]: 2.67 h | Tmax [2, 8]: 1 h | half-life [2, 8]: 1.49 h | AUC(0-t) ([2]; male, ICR, mouse, plasma, po, 5 mg/kg, oral intragastric administration 5 mg/kg, read-out: AUC0-t): 8600 ng·h/mL
